From patent publication US12084435B2, “Pyridine ring-substituted pyridazinol compounds and derivatives, preparation methods, herbicidal compositions and applications thereof” (Qingdao Kingagroot Chemical Compound Co., Ltd., priority 2018, dated 2024)

tested on: monocotyledonous and dicotyledonous weed; test: Post-emergence test, weed control effect (Tables 6 and 7); type: in vivo; set-up: key: 10: completely dead; above 90% growth inhibition rate; above 80% growth inhibition rate; above 70% growth inhibition rate; above 60% growth inhibition rate; above 50% growth inhibition rate; above 40% growth inhibition rate; above 30% growth inhibition rate; above 20% growth inhibition rate; 1: below 20% growth inhibition rate; 0: no effect; settings: Dose 300 g/ha
Experimental: The above described growth inhibition rates are fresh weight inhibition rates. Experiment of post-emergence test: monocotyledonous and dicotyledonous weed seeds as well as main crop seeds (i.e., wheat, corn, rice, soybean, cotton, oilseed rape, millet and sorghum) were put into aplastic pot loaded with soil, then covered with 0.5-2 cm of soil, and the seeds were allowed to grow in good greenhouse environment. The test plants were treated at 4-5 leaf stage 2-3 week […] sowing. The test compounds of the invention were dissolved in acetone respectively, then added with Tween-80 and diluted by a certain amount of water to give solutions with certain concentrations. The solution was sprayed to the plants with as prayer. The plants were cultured for 3 weeks in the greenhouse.

Structure (SMILES)	comparison experiment (activity level), Digitaria sanguinalis	comparison experiment (activity level), Echinochloa crus-galli	comparison experiment (activity level), Galium aparine	comparison experiment (activity level), Rorippa indica	comparison experiment (activity level), Setaria viridis	comparison experiment (activity level), Veronica polita
Oc1cc(Cl)nnc1-c1cccnc1 [Compound 1-1]	7 (above 70% growth inhibition rate)	8 (above 80% growth inhibition rate)	9 (above 90% growth inhibition rate)	10	10	9 (above 90% growth inhibition rate)
Oc1cc(Cl)nnc1-c1cccnc1F [Compound 1-2]	8 (above 80% growth inhibition rate)	10	9 (above 90% growth inhibition rate)	10	10	10
Oc1cc(Cl)nnc1-c1cncc(F)c1 [Compound 1-4]	8 (above 80% growth inhibition rate)	8 (above 80% growth inhibition rate)	10	10	10	10
Oc1cc(Cl)nnc1-c1ccnc(F)c1 [Compound 2-3]	10	10	10	10	10	10

same assay, conditions: Dose 1000 g/ha, after 3 weeks

Structure (SMILES)	weed control effect (activity level), Amaranthus retroflexus	weed control effect (activity level), Chenopodiaceae	weed control effect (activity level), Rorippa indica	weed control effect (activity level), Veronica polita
Oc1cc(Cl)nnc1-c1ccnc(F)c1 [Compound 2-3]	10	10	10	10
Oc1cc(Cl)nnc1-c1ccnc(Cl)c1 [Compound 2-5]	10	10	10	10
Oc1cc(Cl)nnc1-c1ccnc(F)c1F [Compound 2-10]	10	10	10	10
Oc1cc(Cl)nnc1-c1cc(F)ncc1F [Compound 2-11]	10	10	10	10
Oc1cc(Cl)nnc1-c1cc(F)nc(F)c1 [Compound 2-13]	10	10	10	10
Oc1cc(Cl)nnc1-c1cc(F)nc(Cl)c1 [Compound 2-23]	10	10	10	10

same assay, conditions: Dose 2000 g/ha, after 3 weeks

Structure (SMILES)	weed control effect (activity level), Amaranthus retroflexus	weed control effect (activity level), Chenopodiaceae	weed control effect (activity level), Rorippa indica	weed control effect (activity level), Veronica polita
Oc1cc(Cl)nnc1-c1cccnc1 [Compound 1-1]	10	10	10	10
Oc1cc(Cl)nnc1-c1cccnc1F [Compound 1-2]	10	10	10	10
Oc1cc(Cl)nnc1-c1ccc(F)nc1 [Compound 1-3]	10	10	10	10
Oc1cc(Cl)nnc1-c1cncc(F)c1 [Compound 1-4]	10	10	10	10
Oc1cc(Cl)nnc1-c1cnccc1F [Compound 1-5]	10	10	10	10
Oc1cc(Cl)nnc1-c1cccnc1Cl [Compound 1-6]	10	10	10	7 (above 70% growth inhibition rate)
Oc1cc(Cl)nnc1-c1cncc(Cl)c1 [Compound 1-8]	10	10	10	10
Oc1cc(Cl)nnc1-c1ccc(Br)nc1 [Compound 1-11]	10	10	10	10
Oc1cc(Cl)nnc1-c1ccc(C(F)(F)F)nc1 [Compound 1-23]	10	10	10	10
Oc1cc(Cl)nnc1-c1ccc(F)nc1F [Compound 1-57]	10	10	10	10
Oc1cc(Cl)nnc1-c1cc(F)cnc1F [Compound 1-58]	10	10	10	10
Oc1cc(Cl)nnc1-c1cnc(F)c(F)c1 [Compound 1-60]	10	10	10	7 (above 70% growth inhibition rate)
Oc1cc(Cl)nnc1-c1ccc(Cl)nc1Cl [Compound 1-63]	10	10	10	10
Cc1nc(F)ccc1-c1nnc(Cl)cc1O [Compound 1-90]	10	10	10	7 (above 70% growth inhibition rate)
Oc1cc(Cl)nnc1-c1cc(F)c(F)nc1F [Compound 1-105]	10	10	10	10
Oc1cc(Cl)nnc1-c1ccc(F)cn1 [Compound 3-3]	10	10	10	10
Oc1cc(Cl)nnc1-c1ccc(Cl)cn1 [Compound 3-7]	10	10	10	10
Oc1cc(Cl)nnc1-c1cc(Cl)ccn1 [Compound 3-8]	10	10	10	10

same assay, conditions: Dose 3000 g/ha, after 3 weeks

Structure (SMILES)	weed control effect (activity level), Amaranthus retroflexus	weed control effect (activity level), Chenopodiaceae	weed control effect (activity level), Rorippa indica	weed control effect (activity level), Veronica polita
Oc1cc(C(F)(F)C(F)(F)F)nnc1-c1ccc(F)nc1F [Compound 1-131]	10	10	10	10
